Laboratory results as given in ChEMBL document CHEMBL1671858, “Coprevalence of plasmid-mediated quinolone resistance determinants QepA, Qnr, and AAC(6')-Ib-cr among 16S rRNA methylase RmtB-producing Escherichia coli isolates from pigs” (2008).

Columns and labels:
Type in all cases: functional
Escherichia coli [1] = test: Antimicrobial activity against Escherichia coli isolate GZ4 transconjugant harboring 16S rRNA methylase RmtB and qepA by agar dilution method relative to recipient strain
Escherichia coli [2] = test: Antimicrobial activity against Escherichia coli isolate GZ9 transconjugant harboring 16S rRNA methylase RmtB and qepA by agar dilution method relative to recipient strain
Escherichia coli [3] = test: Antimicrobial activity against Escherichia coli isolate CQ5 transconjugant harboring 16S rRNA methylase RmtB and qepA by agar dilution method relative to recipient strain
Escherichia coli [4] = test: Antimicrobial activity against Escherichia coli isolate CQ7 transconjugant harboring 16S rRNA methylase RmtB and qepA, qnrS2, aac(6')-Ib-cr gene by agar dilution method relative to recipient strain
Escherichia coli [5] = test: Antimicrobial activity against Escherichia coli isolate GZ10 transconjugant harboring 16S rRNA methylase RmtB and qepA, aac(6')-Ib-cr gene by agar dilution method relative to recipient strain
Escherichia coli [6] = test: Antimicrobial activity against Escherichia coli isolate CQ19 transconjugant harboring 16S rRNA methylase RmtB and qepA, aac(6')-Ib-cr gene by agar dilution method relative to recipient strain
Escherichia coli [7] = test: Antimicrobial activity against Escherichia coli isolate CQ26 transconjugant harboring 16S rRNA methylase RmtB and qepA by agar dilution method relative to recipient strain
Escherichia coli [8] = test: Antimicrobial activity against Escherichia coli isolate GZ1 transconjugant harboring 16S rRNA methylase RmtB and qnrS1 by agar dilution method relative to recipient strain
Escherichia coli [9] = test: Antimicrobial activity against Escherichia coli isolate CQ16 transconjugant harboring 16S rRNA methylase RmtB and qepA, qnrS2, aac(6')-Ib-cr gene by agar dilution method relative to recipient strain
Escherichia coli [10] = test: Antimicrobial activity against Escherichia coli isolate GZ3 transconjugant harboring 16S rRNA methylase RmtB and qepA by agar dilution method relative to recipient strain
Escherichia coli [11] = test: Antimicrobial activity against Escherichia coli isolate GZ14 transconjugant harboring 16S rRNA methylase RmtB and qepA by agar dilution method relative to recipient strain
Escherichia coli [12] = test: Antimicrobial activity against Escherichia coli isolate CQ20 transconjugant harboring 16S rRNA methylase RmtB and qepA by agar dilution method relative to recipient strain
Escherichia coli [13] = test: Antimicrobial activity against Escherichia coli isolate CQ6 transconjugant harboring 16S rRNA methylase RmtB and qepA, qnrS2, aac(6')-Ib-cr gene by agar dilution method relative to recipient strain
Escherichia coli [14] = test: Antimicrobial activity against Escherichia coli isolate CQ4 transconjugant harboring 16S rRNA methylase RmtB and qepA by agar dilution method relative to recipient strain
Escherichia coli [15] = test: Antimicrobial activity against Escherichia coli isolate GZ7 transconjugant harboring 16S rRNA methylase RmtB and qepA and qnrS1 by agar dilution method relative to recipient strain
Escherichia coli [16] = test: Antimicrobial activity against Escherichia coli isolate CQ1 transconjugant harboring 16S rRNA methylase RmtB and qnrB6 by agar dilution method relative to recipient strain
Escherichia coli [17] = test: Antimicrobial activity against Escherichia coli isolate GZ6 transconjugant harboring 16S rRNA methylase RmtB and qepA by agar dilution method relative to recipient strain
Escherichia coli [18] = test: Antimicrobial activity against Escherichia coli isolate GZ13 transconjugant harboring 16S rRNA methylase RmtB and qepA by agar dilution method relative to recipient strain
Escherichia coli [19] = test: Antimicrobial activity against Escherichia coli isolate CQ2 transconjugant harboring 16S rRNA methylase RmtB and qepA by agar dilution method relative to recipient strain
Escherichia coli [20] = test: Antimicrobial activity against Escherichia coli isolate CQ14 transconjugant harboring 16S rRNA methylase RmtB and qepA by agar dilution method relative to recipient strain
Escherichia coli [21] = test: Antimicrobial activity against Escherichia coli isolate GZ16 transconjugant harboring 16S rRNA methylase RmtB and qepA by agar dilution method relative to recipient strain
Escherichia coli [22] = test: Antimicrobial activity against Escherichia coli isolate GZ2 transconjugant harboring 16S rRNA methylase RmtB and qnrS1 by agar dilution method relative to recipient strain
Escherichia coli [23] = test: Antimicrobial activity against Escherichia coli isolate GZ15 transconjugant harboring 16S rRNA methylase RmtB and qepA by agar dilution method relative to recipient strain
Escherichia coli [24] = test: Antimicrobial activity against Escherichia coli isolate GZ11 transconjugant harboring 16S rRNA methylase RmtB and qepA by agar dilution method relative to recipient strain
Escherichia coli [25] = test: Antimicrobial activity against Escherichia coli isolate CQ10 transconjugant harboring 16S rRNA methylase RmtB and qepA by agar dilution method relative to recipient strain
Escherichia coli [26] = test: Antimicrobial activity against Escherichia coli isolate CQ15 transconjugant harboring 16S rRNA methylase RmtB and qepA by agar dilution method relative to recipient strain
Escherichia coli [27] = test: Antimicrobial activity against Escherichia coli isolate CQ12 transconjugant harboring 16S rRNA methylase RmtB and qepA, qnrS2, aac(6')-Ib-cr gene by agar dilution method relative to recipient strain
Escherichia coli [28] = test: Antimicrobial activity against Escherichia coli isolate CQ22 transconjugant harboring 16S rRNA methylase RmtB and qnrS1 by agar dilution method relative to recipient strain
Escherichia coli [29] = test: Antimicrobial activity against Escherichia coli isolate CQ13 transconjugant harboring 16S rRNA methylase RmtB and qnrS1 by agar dilution method relative to recipient strain
Escherichia coli [30] = test: Antimicrobial activity against Escherichia coli isolate CQ18 transconjugant harboring 16S rRNA methylase RmtB and qepA by agar dilution method relative to recipient strain
Escherichia coli [31] = test: Antimicrobial activity against Escherichia coli isolate GZ5 transconjugant harboring 16S rRNA methylase RmtB and qepA by agar dilution method relative to recipient strain
Escherichia coli [32] = test: Antimicrobial activity against Escherichia coli isolate GZ12 transconjugant harboring 16S rRNA methylase RmtB and qepA by agar dilution method relative to recipient strain
Escherichia coli [33] = test: Antimicrobial activity against Escherichia coli isolate GZ8 transconjugant harboring 16S rRNA methylase RmtB and qepA by agar dilution method relative to recipient strain

Structure (SMILES): C[C@H]1COc2c(N3CCN(C)CC3)c(F)cc3c(=O)c(C(=O)O)cn1c23.C[C@H]1COc2c(N3CCN(C)CC3)c(F)cc3c(=O)c(C(=O)O)cn1c23.O [LEVOFLOXACIN]
- fold change (FC) (Escherichia coli [1]): 2
- fold change (FC) (Escherichia coli [2]): 2
- fold change (FC) (Escherichia coli [3]): 1
- fold change (FC) (Escherichia coli [4]): 1
- fold change (FC) (Escherichia coli [5]): 4
- fold change (FC) (Escherichia coli [6]): 1
- fold change (FC) (Escherichia coli [7]): 1
- fold change (FC) (Escherichia coli [8]): 4
- fold change (FC) (Escherichia coli [9]): 2
- fold change (FC) (Escherichia coli [10]): 2
- fold change (FC) (Escherichia coli [11]): 4
- fold change (FC) (Escherichia coli [12]): 2
- fold change (FC) (Escherichia coli [13]): 4
- fold change (FC) (Escherichia coli [14]): 1
- fold change (FC) (Escherichia coli [15]): 1
- fold change (FC) (Escherichia coli [16]): 1
- fold change (FC) (Escherichia coli [17]): 4
- fold change (FC) (Escherichia coli [18]): 2
- fold change (FC) (Escherichia coli [19]): 4
- fold change (FC) (Escherichia coli [20]): 2
- fold change (FC) (Escherichia coli [21]): 4
- fold change (FC) (Escherichia coli [22]): 2
- fold change (FC) (Escherichia coli [23]): 2
- fold change (FC) (Escherichia coli [24]): 2
- fold change (FC) (Escherichia coli [25]): 2
- fold change (FC) (Escherichia coli [26]): 1
- fold change (FC) (Escherichia coli [27]): 2
- fold change (FC) (Escherichia coli [28]): 1
- fold change (FC) (Escherichia coli [29]): 4
- fold change (FC) (Escherichia coli [30]): 1
- fold change (FC) (Escherichia coli [31]): 2
- fold change (FC) (Escherichia coli [32]): 8
- fold change (FC) (Escherichia coli [33]): 1

Structure (SMILES): CCn1cc(C(=O)O)c(=O)c2ccc(C)nc21 [NALIDIXIC ACID]
- fold change (FC) (Escherichia coli [1]): 2
- fold change (FC) (Escherichia coli [2]): 4
- fold change (FC) (Escherichia coli [3]): 1
- fold change (FC) (Escherichia coli [4]): 1
- fold change (FC) (Escherichia coli [5]): 16
- fold change (FC) (Escherichia coli [6]): 1
- fold change (FC) (Escherichia coli [7]): 1
- fold change (FC) (Escherichia coli [8]): 4
- fold change (FC) (Escherichia coli [9]): 2
- fold change (FC) (Escherichia coli [10]): 8
- fold change (FC) (Escherichia coli [11]): 1
- fold change (FC) (Escherichia coli [12]): 1
- fold change (FC) (Escherichia coli [13]): 16
- fold change (FC) (Escherichia coli [14]): 2
- fold change (FC) (Escherichia coli [15]): 16
- fold change (FC) (Escherichia coli [16]): 2
- fold change (FC) (Escherichia coli [17]): 1
- fold change (FC) (Escherichia coli [18]): 4
- fold change (FC) (Escherichia coli [19]): 1
- fold change (FC) (Escherichia coli [20]): 1
- fold change (FC) (Escherichia coli [21]): 2
- fold change (FC) (Escherichia coli [22]): 4
- fold change (FC) (Escherichia coli [23]): 1
- fold change (FC) (Escherichia coli [24]): 2
- fold change (FC) (Escherichia coli [25]): 1
- fold change (FC) (Escherichia coli [26]): 1
- fold change (FC) (Escherichia coli [27]): 1
- fold change (FC) (Escherichia coli [28]): 1
- fold change (FC) (Escherichia coli [29]): 4
- fold change (FC) (Escherichia coli [30]): 1
- fold change (FC) (Escherichia coli [31]): 1
- fold change (FC) (Escherichia coli [32]): 1
- fold change (FC) (Escherichia coli [33]): 4

Structure (SMILES): CCn1cc(C(=O)O)c(=O)c2cc(F)c(N3CCNCC3)cc21 [NORFLOXACIN]
- fold change (FC) (Escherichia coli [1]): 4
- fold change (FC) (Escherichia coli [2]): 16
- fold change (FC) (Escherichia coli [3]): 16
- fold change (FC) (Escherichia coli [4]): 16
- fold change (FC) (Escherichia coli [5]): 16
- fold change (FC) (Escherichia coli [6]): 16
- fold change (FC) (Escherichia coli [7]): 4
- fold change (FC) (Escherichia coli [8]): 16
- fold change (FC) (Escherichia coli [9]): 16
- fold change (FC) (Escherichia coli [10]): 16
- fold change (FC) (Escherichia coli [11]): 16
- fold change (FC) (Escherichia coli [12]): 4
- fold change (FC) (Escherichia coli [13]): 16
- fold change (FC) (Escherichia coli [14]): 2
- fold change (FC) (Escherichia coli [15]): 16
- fold change (FC) (Escherichia coli [16]): 2
- fold change (FC) (Escherichia coli [17]): 8
- fold change (FC) (Escherichia coli [18]): 8
- fold change (FC) (Escherichia coli [19]): 16
- fold change (FC) (Escherichia coli [20]): 32
- fold change (FC) (Escherichia coli [21]): 8
- fold change (FC) (Escherichia coli [22]): 2
- fold change (FC) (Escherichia coli [23]): 4
- fold change (FC) (Escherichia coli [24]): 4
- fold change (FC) (Escherichia coli [25]): 32
- fold change (FC) (Escherichia coli [26]): 8
- fold change (FC) (Escherichia coli [27]): 16
- fold change (FC) (Escherichia coli [28]): 2
- fold change (FC) (Escherichia coli [29]): 4
- fold change (FC) (Escherichia coli [30]): 8
- fold change (FC) (Escherichia coli [31]): 16
- fold change (FC) (Escherichia coli [32]): 16
- fold change (FC) (Escherichia coli [33]): 8
